According to the supplement of paper PMC10307832:

Each cell line was assayed with COc1cc(Nc2ncc(F)c(Nc3ccc4c(n3)NC(=O)C(C)(C)O4)n2)cc(OC)c1OC [R406] + Cc1nc(NC(=O)N2CCC[C@H]2C(N)=O)sc1-c1ccnc(C(C)(C)C(F)(F)F)c1 [Alpelisib] (partner 2 µM) (assay: relative viability (nuclei count vs DMSO), 5 days (fraction); higher = more cells survive). Details: first compound 0.08 µM.
How it was run: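 Relative viability was taken as the ratio of nuclei in treated wells to nuclei in vehicle wells. Lung cancer cell lines in 1536-well plates received compounds by pin tool one day after seeding, either one drug alone or a fixed anchor-drug dose plus five library-drug doses (not always all listed) in √10 steps. Nuclei were counted on 4× images after 5 days of treatment, and values are medians of duplicate plates.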

Cell Line	relative viability
SW 1573	0.753
NCI-H1395	1.13
201T	1.03
NCI-H1915	1.08
HCC-827	1.04
LXF-289	0.977
NCI-H23	0.638
NCI-H650	1.25
CAL-12T	1.3
NCI-H1651	0.9
EPLC-272H	0.989
NCI-H2228	0.702
NCI-H1792	0.626
NCI-H1355	0.838
NCI-H3122	0.729
NCI-H1437	1
NCI-H1755	0.834
NCI-H2023	0.541
HCC-15	0.859
PC-3 [JPC-3]	0.988
EKVX	0.928
LC-2-ad	0.769
NCI-H1975	0.624
SK-LU-1	1.01
NCI-H1944	0.758
NCI-H661	0.299
RERF-LC-KJ	0.87

Same assay, conditions: first compound 0.253 µM

Cell Line	relative viability
NCI-H2009	1.22
A-427	1.17
NCI-H460	0.476
NCI-H727	0.574
NCI-H1734	0.732
NCI-H520	1.09
NCI-H2347	1.15
SW 1573	1.02
NCI-H1395	1.04
201T	1.02
NCI-H1915	1.12
HCC-827	0.903
LXF-289	1.06
NCI-H23	0.759
NCI-H650	1.04
CAL-12T	1.54
NCI-H1651	1.03

Cell Line	relative viability
EPLC-272H	1.2
NCI-H2228	0.735
NCI-H1792	0.665
NCI-H1355	0.917
NCI-H3122	0.807
NCI-H1437	1.09
NCI-H1755	1.05
NCI-H2023	0.572
HCC-15	0.887
PC-3 [JPC-3]	1.15
EKVX	0.992
LC-2-ad	0.802
NCI-H1975	0.598
SK-LU-1	0.849
NCI-H1944	0.84
NCI-H661	0.878
RERF-LC-KJ	1.07

Same assay, conditions: first compound 0.8 µM

Cell Line	relative viability
NCI-H2009	1.24
A-427	1.12
NCI-H460	0.665
NCI-H727	0.61
NCI-H1734	0.748
NCI-H520	0.779
NCI-H2347	1.12
SW 1573	0.739
NCI-H1395	1.09
201T	1.04
NCI-H1915	1.04
HCC-827	1.03
LXF-289	1.04
NCI-H23	0.786
NCI-H650	1.16
CAL-12T	1.83
NCI-H1651	1.04

Cell Line	relative viability
EPLC-272H	0.969
NCI-H2228	0.9
NCI-H1792	0.752
NCI-H1355	0.985
NCI-H3122	0.739
NCI-H1437	1.17
NCI-H1755	1.04
NCI-H2023	0.685
HCC-15	0.981
PC-3 [JPC-3]	1.13
EKVX	1.06
LC-2-ad	0.909
NCI-H1975	0.682
SK-LU-1	1.05
NCI-H1944	0.757
NCI-H661	0.877
RERF-LC-KJ	0.971

Same assay, conditions: first compound 2.53 µM

Cell Line	relative viability
NCI-H2009	1.05
A-427	0.928
NCI-H727	0.497
NCI-H1734	0.521
NCI-H520	0.316
NCI-H2347	0.791
SW 1573	0.673
NCI-H1395	0.813
201T	0.979
NCI-H1915	1.02
HCC-827	0.827
LXF-289	1
NCI-H23	0.732
NCI-H650	0.87
CAL-12T	1.03
NCI-H1651	0.699

Cell Line	relative viability
EPLC-272H	0.607
NCI-H2228	0.618
NCI-H1792	0.541
NCI-H1355	0.547
NCI-H3122	0.695
NCI-H1437	0.928
NCI-H1755	0.632
NCI-H2023	0.409
PC-3 [JPC-3]	0.902
EKVX	0.77
LC-2-ad	0.329
NCI-H1975	0.276
SK-LU-1	0.368
NCI-H1944	0.652
NCI-H661	0.597
RERF-LC-KJ	0.738

Same assay, conditions: first compound 8 µM

Cell Line	relative viability
NCI-H2009	1.05
A-427	0.843
NCI-H460	0.0573
NCI-H727	0.245
NCI-H1734	0.465
NCI-H520	0.525
NCI-H2347	0.856
SW 1573	0.494
NCI-H1395	0.619
201T	0.86
NCI-H1915	1.01
HCC-827	0.282
LXF-289	0.193
NCI-H23	0.438
NCI-H650	0.802
CAL-12T	0.923
NCI-H1651	0.512
